Like-named read-outs stand apart in the source and are kept apart here. Each block holds one molecule with its values, some of them ahead of it.
What was measured:
[1] = system: HCC1937; test: Cell growth inhibition (CellTiter-Glo), breast cancer line HCC1937; type: cell-based; settings: 4 days
Procedure: (§1) Cell growth inhibitory activity of representative BET bromodomain degraders in representative breast cancer cell lines was determined using the CellTiter-Glo® Luminescent Cell Viability Assay. SUM-52 and SUM-159 cell lines were established at the University of Michigan Comprehensive Cancer Center. All the other breast cancer cell lines were obtained from the ATCC (Manassas, Va.). Cells were seeded in 384-well cell culture plates at a density of 1,000-2,500 cells/well with serially diluted compounds and incubated at 37° C. in an atmosphere of 95% air and 5% CO2 for 4 days. Cell viability was determined using the CellTiter-Glo® Luminescent Cell Viability Assay Kit (Promega, Madison, Wis.) according to the manufacture's instruction. Briefly, a volume of CellTiter-Glo® Reagent equal to the volume of cell culture medium was added to each well, and then the plates were incubated at room temperature for 20-60 minutes. The luminescent signal was measured using a Tecan Infinite M1000 multimode microplate reader (Tecan, Morrisville, N.C.). The half maximal inhibitory concentration (IC50) was calculated using the GraphPad Prism 5 software (GraphPad Software, La Jolla, Calif.). “Thd” is thalidomide.

[2] = system: SUM-52; test: Cell growth inhibition (CellTiter-Glo), breast cancer line SUM-52; type: cell-based; settings: SUM-52 breast cancer cell line, 4 days
Procedure: as §1

[3] = system: SW48; test: Cell growth inhibition (CellTiter-Glo), colon cancer line SW48; type: cell-based
Procedure: (§2) Cell growth inhibitory activity of representative BET bromodomain degraders in representative non-small cell lung cancer cell lines was determined using the CellTiter-Glo® Luminescent Cell Viability Assay. Cells were seeded in 384-well white opaque cell culture plates at a density of 2,000 cells/well with serially diluted compounds and incubated at 37° C. in an atmosphere of 95% air and 5% CO2 for 4 days. Cell viability was determined using the CellTiter-Glo® Luminescent Cell Viability Assay Kit (Promega, Madison, Wis.) according to the manufacture's instruction. Briefly, a volume of CellTiter-Glo® Reagent equal to the volume of cell culture medium was added to each well, and then the plates were incubated at room temperature for 10-20 minutes. The luminescent signal was measured using a Tecan Infinite M1000 multimode microplate reader (Tecan, Morrisville, N.C.). The half maximal inhibitory concentration (IC50) was calculated using the GraphPad Prism 5 software (GraphPad Software, La Jolla, Calif.). Cpd. A is a BET bromodomain inhibitor, see U.S. Appl. No. 62/121,637, having the following structure:
(§3) Cell growth inhibitory activity of representative BET bromodomain degraders in representative colon cancer cell lines, see Table 7, was determined as described in Example 17.

[4] = system: MDA-MB-231; test: Cell growth inhibition (CellTiter-Glo), breast cancer line MDA-MB-231; type: cell-based, human; settings: MDA-MB-231 breast cancer cell line, 4 days
Procedure: as §1

[5] = system: CALU6; test: Cell growth inhibition (CellTiter-Glo), NSCLC line CALU6; type: cell-based; settings: CALU6 non-small cell lung cancer cell line, 4 days
Procedure: as §2, with “Appl.” for “Appl. No. 62/121,637, having the following structure:”

[6] = system: HT-29; test: Cell growth inhibition (CellTiter-Glo), colon cancer line HT-29; type: cell-based; settings: HT-29 colon cancer cell line
Procedure: as §2, §3

[7] = system: MDA-MB-157; test: Cell growth inhibition (CellTiter-Glo), breast cancer line MDA-MB-157; type: cell-based; settings: MDA-MB-157 breast cancer cell line, 4 days
Procedure: as §1

[8] = system: H2170; test: Cell growth inhibition (CellTiter-Glo), NSCLC line H2170; type: cell-based; settings: H2170 non-small cell lung cancer cell line, 4 days
Procedure: as §2, with “Appl.” for “Appl. No. 62/121,637, having the following structure:”

[9] = system: SW403; test: Cell growth inhibition (CellTiter-Glo), colon cancer line SW403; type: cell-based
Procedure: as §2, §3

[10] = system: H1792; test: Cell growth inhibition (CellTiter-Glo), NSCLC line H1792; type: cell-based; settings: H1792 non-small cell lung cancer cell line, 4 days
Procedure: as §2, with “Appl.” for “Appl. No. 62/121,637, having the following structure:”

[11] = system: HCC1954; test: Cell growth inhibition (CellTiter-Glo), breast cancer line HCC1954; type: cell-based; settings: 4 days
Procedure: as §1

[12] = system: MDA-MB-468; test: Cell growth inhibition (CellTiter-Glo), breast cancer line MDA-MB-468; type: cell-based; settings: MDA-MB-468 breast cancer cell line, 4 days
Procedure: as §1

[13] = system: H2228; test: Cell growth inhibition (CellTiter-Glo), NSCLC line H2228; type: cell-based; settings: H2228 non-small cell lung cancer cell line, 4 days
Procedure: as §2, with “Appl.” for “Appl. No. 62/121,637, having the following structure:”

[14] = system: T84; test: Cell growth inhibition (CellTiter-Glo), colon cancer line T84; type: cell-based
Procedure: as §2, §3

[15] = system: H2030; test: Cell growth inhibition (CellTiter-Glo), NSCLC line H2030; type: cell-based; settings: H2030 non-small cell lung cancer cell line, 4 days
Procedure: as §2, with “Appl.” for “Appl. No. 62/121,637, having the following structure:”

[16] = system: SW620; test: Cell growth inhibition (CellTiter-Glo), colon cancer line SW620; type: cell-based
Procedure: as §2, §3

[17] = system: H1650; test: Cell growth inhibition (CellTiter-Glo), NSCLC line H1650; type: cell-based; settings: H1650 non-small cell lung cancer cell line, 4 days
Procedure: as §2, with “Appl.” for “Appl. No. 62/121,637, having the following structure:”

[18] = system: SW1463; test: Cell growth inhibition (CellTiter-Glo), colon cancer line SW1463; type: cell-based
Procedure: as §2, §3

[19] = system: SUM-159; test: Cell growth inhibition (CellTiter-Glo), breast cancer line SUM-159; type: cell-based; settings: SUM-159 breast cancer cell line, 4 days
Procedure: as §1

[20] = system: SW948; test: Cell growth inhibition (CellTiter-Glo), colon cancer line SW948; type: cell-based
Procedure: as §2, §3

[21] = system: H1437; test: Cell growth inhibition (CellTiter-Glo), NSCLC line H1437; type: cell-based; settings: H1437 non-small cell lung cancer cell line, 4 days
Procedure: as §2, with “Appl.” for “Appl. No. 62/121,637, having the following structure:”

[22] = system: SW837; test: Cell growth inhibition (CellTiter-Glo), colon cancer line SW837; type: cell-based
Procedure: as §2, §3

[23] = system: LS513; test: Cell growth inhibition (CellTiter-Glo), colon cancer line LS513; type: cell-based
Procedure: as §2, §3

Compound: CCn1nc(C2CC2)cc1Nc1nc(COC)nc2[nH]c3cc(-c4c(C)noc4C)c(OC)cc3c12 [Cpd. A, reference compound]
- IC50 ([1]; Homo sapiens, 96 h): > 5000 nM
- IC50 ([2]; SUM52, 96 h): 390 nM
- IC50 ([3]; Homo sapiens): 45.7 nM
- IC50 ([4]; Homo sapiens, 96 h): 220 nM
- IC50 ([5]; Homo sapiens, Calu-6, 96 h): 630 nM
- IC50 ([6]; Homo sapiens): 69 ± 1 nM
- IC50 ([7]; Homo sapiens, 96 h): 860 nM
- IC50 ([8]; Homo sapiens, NCI-H2170, 96 h): 20 nM
- IC50 ([9]; Homo sapiens, SW-403): 102 ± 23 nM
- IC50 ([10]; Homo sapiens, NCI-H1792, 96 h): 130 nM
- IC50 ([11]; Homo sapiens, 96 h): 1620 nM
- IC50 ([12]; Homo sapiens, 96 h): 510 nM
- IC50 ([13]; Homo sapiens, NCI-H2228, 96 h): 2400 nM
- IC50 ([14]; Homo sapiens): 413 ± 100 nM
- IC50 ([15]; Homo sapiens, NCI-H2030, 96 h): 110 nM
- IC50 ([16]; Homo sapiens, SW-620): > 2500 nM
- IC50 ([17]; Homo sapiens, NCI-H1650, 96 h): 430 nM
- IC50 ([18]; Homo sapiens): > 2500 nM
- IC50 ([19]; SUM159, 96 h): 510 nM
- IC50 ([20]; Homo sapiens): > 2500 nM
- IC50 ([21]; Homo sapiens, NCI-H1437, 96 h): 140 nM
- IC50 ([22]; Homo sapiens): 84 ± 20 nM
- IC50 ([23]; Homo sapiens, LS-513): 915 ± 670 nM

Compound: CCn1nc(C2CC2)cc1Nc1nc(C(=O)NCCCOCCOCCOCCCNc2cccc3c2C(=O)N(C2CCC(=O)NC2=O)C3=O)nc2[nH]c3cc(-c4c(C)noc4C)c(OC)cc3c12 (stereo not shown) [Cpd. No. 4]
- IC50 ([1]; Homo sapiens, 96 h): 8 nM
- IC50 ([2]; SUM52, 96 h): 8 nM
- IC50 ([3]; Homo sapiens): 6 nM
- IC50 ([4]; Homo sapiens, 96 h): 4 nM
- IC50 ([5]; Homo sapiens, Calu-6, 96 h): 9 nM
- IC50 ([6]; Homo sapiens): 32 ± 20 nM
- IC50 ([7]; Homo sapiens, 96 h): 2 nM
- IC50 ([8]; Homo sapiens, NCI-H2170, 96 h): 99 nM
- IC50 ([9]; Homo sapiens, SW-403): 42 ± 10 nM
- IC50 ([10]; Homo sapiens, NCI-H1792, 96 h): 48 nM
- IC50 ([11]; Homo sapiens, 96 h): 4 nM
- IC50 ([12]; Homo sapiens, 96 h): 2 nM
- IC50 ([13]; Homo sapiens, NCI-H2228, 96 h): 174 nM
- IC50 ([14]; Homo sapiens): 110 ± 30 nM
- IC50 ([15]; Homo sapiens, NCI-H2030, 96 h): 137 nM
- IC50 ([16]; Homo sapiens, SW-620): 38 ± 5 nM
- IC50 ([17]; Homo sapiens, NCI-H1650, 96 h): 4 nM
- IC50 ([18]; Homo sapiens): 31 ± 10 nM
- IC50 ([19]; SUM159, 96 h): 166 nM
- IC50 ([20]; Homo sapiens): 197 ± 160 nM
- IC50 ([21]; Homo sapiens, NCI-H1437, 96 h): 329 nM
- IC50 ([22]; Homo sapiens): 76 ± 30 nM
- IC50 ([23]; Homo sapiens, LS-513): 70 ± 20 nM

- IC50 ([3]; Homo sapiens): 8 nM
- IC50 ([5]; Homo sapiens, Calu-6, 96 h): 33 nM
- IC50 ([6]; Homo sapiens): 48 ± 2 nM
- IC50 ([8]; Homo sapiens, NCI-H2170, 96 h): 195 nM
- IC50 ([9]; Homo sapiens, SW-403): 219 ± 190 nM
- IC50 ([10]; Homo sapiens, NCI-H1792, 96 h): 151 nM
- IC50 ([13]; Homo sapiens, NCI-H2228, 96 h): 610 nM
- IC50 ([14]; Homo sapiens): 690 ± 300 nM
- IC50 ([15]; Homo sapiens, NCI-H2030, 96 h): 269 nM
- IC50 ([16]; Homo sapiens, SW-620): 1040 ± 1040 nM
- IC50 ([17]; Homo sapiens, NCI-H1650, 96 h): 8 nM
- IC50 ([18]; Homo sapiens): 191 ± 30 nM
- IC50 ([20]; Homo sapiens): 1000 ± 1070 nM
- IC50 ([21]; Homo sapiens, NCI-H1437, 96 h): 818 nM
- IC50 ([22]; Homo sapiens): 230 ± 67 nM
- IC50 ([23]; Homo sapiens, LS-513): 185 ± 60 nM
Compound: CCn1nc(C2CC2)cc1Nc1nc(C(=O)NCCCCNc2cccc3c2C(=O)N(C2CCC(=O)NC2=O)C3=O)nc2[nH]c3cc(-c4c(C)noc4C)c(OC)cc3c12 (stereo not shown) [Cpd. No. 9]

- IC50 [1]: > 5000 nM
- IC50 [2]: > 5000 nM
- IC50 [3]: 2780 nM
- IC50 [4]: 1830 nM
- IC50 [5]: > 5000 nM
- IC50 [6]: > 5000 nM
- IC50 [7]: 1170 nM
- IC50 [8]: > 5000 nM
- IC50 [9]: > 5000 nM
- IC50 [10]: > 5000 nM
- IC50 [11]: 3760 nM
- IC50 [12]: 1390 nM
- IC50 [13]: > 5000 nM
- IC50 [14]: > 5000 nM
- IC50 [15]: > 5000 nM
- IC50 [16]: > 5000 nM
- IC50 [17]: 2300 nM
- IC50 [18]: 2730 ± 300 nM
- IC50 [19]: > 5000 nM
- IC50 [20]: > 5000 nM
- IC50 [21]: > 5000 nM
- IC50 [22]: > 5000 nM
- IC50 [23]: > 5000 nM
Compound: Cc1sc2c(c1C)C(c1ccc(Cl)cc1)=N[C@@H](CC(=O)NCCCCNC(=O)COc1cccc3c1C(=O)N(C1CCC(=O)NC1=O)C3=O)c1nnc(C)n1-2 (stereo partly shown) [dBET1, reference compound]

— patent US10633386B2, “BET protein degraders” (THE REGENTS OF THE UNIVERSITY OF MICHIGAN, priority 2016, dated 2020)
